Reference: PMC9127571 (eBioMedicine, 2022)
Converted amounts (≈) assume the structure as drawn. “Also recorded” adds a separate entry of the source.

Key:
[1] = Phase 1a safety and tolerability: adverse events, ECG, laboratory tests; type: in vivo, human
[2] = Beagle dog oral toxicology, safety pharmacology and toxicokinetics; type: in vivo; settings: high doses
P. falciparum = settings: cited from earlier work
[3] = Phase 1a plasma pharmacokinetics of SJ733 and metabolite SJ506; type: in vivo, human
[4] = Cobicistat plasma pharmacokinetics; type: in vivo, human; settings: 150 mg, all individuals
[5] = MAD and cobicistat-boosted SAD cohorts

time by which levels were below LLOQ (10 ng/mL) [4]	Structure (SMILES)	relatedness of all AEs to SJ733 or cobicistat [1, 5]	serious adverse events [1, 5]	post-dose QTc above 500 ms ([1]; human, in vivo, oral)	baseline versus post-dose QTc interval change above 60 ms ([1]; instance: Day 3, 1·5 h post 300 mg, unboosted)	methemoglobinemia [2]	estimated minimum inhibitory concentration (MIC) (P. falciparum)	minimum inhibitory concentration (MIC) (P. falciparum)	individuals with time above MIC >96 h ([3]; 300 mg daily for 3 days)	individuals with time above MIC >96 h ([3]; 600 mg daily for 3 days)	decrease in median post-hoc apparent clearance ([3]; SAD cohorts without vs with cobicistat)	AUC(0-inf) ([3]; human, plasma, oral)	Cmax ([3]; human, plasma, oral, maximal Cmax, unboosted SAD and MAD cohorts)
–	N#Cc1cc(NC(=O)[C@H]2c3ccccc3C(=O)N(CC(F)(F)F)[C@@H]2c2cccnc2)ccc1F [SJ733]	unlikely related or unrelated	no serious adverse events; also recorded: no serious AEs	no post-dose QTc interval change above 500 ms	one instance	Dose-dependent, reversible methemoglobinemia	0.15 µg/mL	0.15 µg/mL (≈ 0.32 µM)	0%	50%	72%	104 µg·h/mL	2180 ng/mL
≤ 48 h	CC(C)c1nc(CN(C)C(=O)N[C@@H](CCN2CCOCC2)C(=O)N[C@H](CC[C@H](Cc2ccccc2)NC(=O)OCc2cncs2)Cc2ccccc2)cs1 [cobicistat]	–	–	–	–	–	–	–	–	–	–	–	–
